Reference: ChEMBL document CHEMBL1156499, “Tripeptides of RS1 (RSC1A1) inhibit a monosaccharide-dependent exocytotic pathway of Na+-D-glucose cotransporter SGLT1 with high affinity” (J Biol Chem, 2007)
Calls of active or inactive are those of the source. The rule behind the calls is not given here. Peptide text beside a SMILES is read from it.

Tests used:
[1] = molecular target: T1, Sodium/glucose cotransporter 1 (Homo sapiens) (UniProt P13866); assay: Inhibition of human SGLT1 expressed in xenopus laevis oocyte assessed as inhibition of methyl-alpha-D-[14C]glucopyranoside uptake at 75 pmol after 1 hr relative to control; parameters: Activity: scale not given: the % may be the effect or the level left
T1 sequence (whole entry): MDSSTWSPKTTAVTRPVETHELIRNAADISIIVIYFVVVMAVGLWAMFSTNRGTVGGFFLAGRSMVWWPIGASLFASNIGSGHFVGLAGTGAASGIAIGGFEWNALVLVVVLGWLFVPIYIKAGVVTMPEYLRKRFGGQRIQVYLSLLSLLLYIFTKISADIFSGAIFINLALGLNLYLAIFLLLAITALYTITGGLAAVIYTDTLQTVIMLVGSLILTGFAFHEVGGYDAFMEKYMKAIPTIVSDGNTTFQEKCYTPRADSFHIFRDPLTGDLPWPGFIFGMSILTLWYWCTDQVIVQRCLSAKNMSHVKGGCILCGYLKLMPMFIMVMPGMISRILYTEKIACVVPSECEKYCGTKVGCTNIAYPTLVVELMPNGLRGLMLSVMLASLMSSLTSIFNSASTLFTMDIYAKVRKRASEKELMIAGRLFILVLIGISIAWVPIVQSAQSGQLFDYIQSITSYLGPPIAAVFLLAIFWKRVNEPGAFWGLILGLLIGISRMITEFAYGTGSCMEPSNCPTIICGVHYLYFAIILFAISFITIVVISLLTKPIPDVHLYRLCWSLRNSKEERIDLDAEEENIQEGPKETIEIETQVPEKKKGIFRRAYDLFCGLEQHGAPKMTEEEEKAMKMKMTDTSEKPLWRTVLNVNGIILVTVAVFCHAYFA

[2] = molecular target: T2, Solute carrier family 15 member 1 (Homo sapiens) (UniProt P46059); assay: Activity of human PepT1 expressed in xenopus laevis oocyte assessed as induction of inward current at 5 mM
T2 sequence (whole entry): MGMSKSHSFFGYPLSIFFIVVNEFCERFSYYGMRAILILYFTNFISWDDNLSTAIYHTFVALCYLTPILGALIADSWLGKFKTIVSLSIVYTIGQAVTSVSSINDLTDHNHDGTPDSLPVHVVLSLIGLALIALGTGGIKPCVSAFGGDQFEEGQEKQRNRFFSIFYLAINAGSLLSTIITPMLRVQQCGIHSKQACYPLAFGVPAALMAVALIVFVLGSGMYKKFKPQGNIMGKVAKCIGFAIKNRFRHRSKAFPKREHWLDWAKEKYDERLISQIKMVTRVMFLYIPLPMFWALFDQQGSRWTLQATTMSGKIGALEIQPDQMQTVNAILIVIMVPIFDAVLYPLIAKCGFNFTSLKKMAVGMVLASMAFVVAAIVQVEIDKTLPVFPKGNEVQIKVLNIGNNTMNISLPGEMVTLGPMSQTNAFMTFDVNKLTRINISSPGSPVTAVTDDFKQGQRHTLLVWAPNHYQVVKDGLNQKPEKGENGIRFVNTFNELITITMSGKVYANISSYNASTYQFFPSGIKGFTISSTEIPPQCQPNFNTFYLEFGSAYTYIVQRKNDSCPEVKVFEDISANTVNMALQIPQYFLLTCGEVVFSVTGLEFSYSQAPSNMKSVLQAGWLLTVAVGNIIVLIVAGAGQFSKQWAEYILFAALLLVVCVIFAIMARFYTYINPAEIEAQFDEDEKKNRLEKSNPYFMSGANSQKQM

[3] = molecular target: T1, Sodium/glucose cotransporter 1 (Homo sapiens); assay: Reversal of inhibition of human SGLT1 expressed in xenopus laevis oocyte assessed as inhibition of methyl-alpha-D-[14C]glucopyranoside uptake at 75 pmol after 1 hr in presence of methyl-alpha-D-glucopyranoside relative to control
[4] = molecular target: T1, Sodium/glucose cotransporter 1 (Homo sapiens); assay: Reversal of inhibition of human SGLT1 expressed in xenopus laevis oocyte by measuring inhibition of methyl-alpha-D-[14C]glucopyranoside uptake after 1 hr assessed concentration required for 50% protective high affinity in presence of methyl-alpha-D-glucopyranoside relative to control
[5] = molecular target: T1, Sodium/glucose cotransporter 1 (Homo sapiens); assay: Reversal of inhibition of human SGLT1 expressed in xenopus laevis oocyte assessed as inhibition of methyl-alpha-D-[14C]glucopyranoside uptake at 75 pmol after 1 hr in presence of D-fructose relative to control
[6] = molecular target: T1, Sodium/glucose cotransporter 1 (Homo sapiens); assay: Reversal of inhibition of human SGLT1 expressed in xenopus laevis oocyte by measuring inhibition of methyl-alpha-D-[14C]glucopyranoside uptake after 1 hr assessed concentration required for 50% protective high affinity in presence of 2-deoxyglucose relative to control
[7] = molecular target: T1, Sodium/glucose cotransporter 1 (Homo sapiens); assay: Reversal of inhibition of human SGLT1 expressed in xenopus laevis oocyte assessed as inhibition of methyl-alpha-D-[14C]glucopyranoside uptake at 75 pmol after 1 hr in presence of D-glucose relative to control
[8] = molecular target: T1, Sodium/glucose cotransporter 1 (Homo sapiens); assay: Reversal of inhibition of human SGLT1 expressed in xenopus laevis oocyte assessed as inhibition of methyl-alpha-D-[14C]glucopyranoside uptake at 75 pmol after 1 hr in presence of 2-deoxyglucose relative to control
[9] = molecular target: T1, Sodium/glucose cotransporter 1 (Homo sapiens); assay: Reversal of inhibition of human SGLT1 expressed in xenopus laevis oocyte by measuring inhibition of methyl-alpha-D-[14C]glucopyranoside uptake after 1 hr assessed concentration required for 50 % protective high affinity in presence of D-glucose relative to control
Small intestine = assay: Decrease of D-glucose absorption in perfused rat small intestine at 15 mM relative to control; assay type: functional; parameters: scale not given: the % may be the effect or the level left
[10] = substrate: NC(=O)CC[C@H](N)C(=O)N[C@@H](CO)C(=O)N1CCC[C@H]1C(=O)O; assay: Activity of human PepT1 expressed in xenopus laevis oocyte assessed as induction of inward current

Question: For `CC(=O)N1CCC[C@H]1C(=O)N[C@H](C(=O)N[C@@H](CCC(N)=O)C(=O)O)[C@@H](C)O` (Ac-Pro-Thr-Gln-OH), which Activity [1] is on record?
Answer: Active

Question: `CC(=O)N1CCC[C@H]1C(=O)N1CCC[C@H]1C(=O)N[C@@H](CCC(N)=O)C(=O)O` (Ac-Pro-Pro-Gln-OH) was tested. Which Activity [1] did it give?
Answer: Active

Question: Which Activity [1] does the source give for `CC(=O)N1CCC[C@H]1C(=O)NCC(=O)N[C@@H](CCC(N)=O)C(=O)O` (Ac-Pro-Gly-Gln-OH) here?
Answer: Active

Question: How did the Activity [2] turn out when `NCC(=O)N[C@@H](CCC(N)=O)C(=O)O` (H-Gly-Gln-OH) was run?
Answer: Active

Question: Which Activity [1] does the source give for `CC(=O)N[C@@H](CCC(N)=O)C(=O)N[C@@H](CCC(=O)O)C(=O)N1CCC[C@H]1C(=O)O` (Ac-Gln-Glu-Pro-OH) here?
Answer: Active

Question: How did the Activity [1] turn out when `NC(=O)CC[C@H](N)C(=O)N[C@@H](CS)C(=O)N1CCC[C@H]1C(=O)O` (H-Gln-Cys-Pro-OH) was run?
Answer: Active

Question: And the Activity [3]?
Answer: Active

Question: What about the Activity [4] of the same molecule?
Answer: 53 µM

Question: What about the Activity [5] of the same molecule?
Answer: Active

Question: What about the Activity [6] of the same molecule?
Answer: 11.9 µM

Question: And the Activity [7]?
Answer: Active

Question: What about the Activity [8] of the same molecule?
Answer: Active

Question: For Ac-SVQPCQENQ-OH, which inhibition [1] is on record?
Answer: 55%

Question: How did the Activity [1] turn out when `CC(=O)N1CCC[C@H]1C(=O)N[C@@H](CO)C(=O)N[C@@H](CCC(N)=O)C(=O)O` (Ac-Pro-Ser-Gln-OH) was run?
Answer: 44%

Question: What does the source list for `CC(=O)N[C@@H](CCC(N)=O)C(=O)N[C@@H](CS)C(=O)N1CCC[C@H]1C(=O)O` (Ac-Gln-Cys-Pro-OH)?
Answer: Activity [2]: Active; Activity [1]: inactive

Question: How did the Activity [2] turn out when `NC(=O)CC[C@H](N)C(=O)N[C@@H](CO)C(=O)N1CCC[C@H]1C(=O)O` (H-Gln-Ser-Pro-OH) was run?
Answer: Active

Question: What about the Activity [9] of the same molecule?
Answer: 30 µM

Question: What about the Activity [1] of the same molecule?
Answer: Active

Question: What about the Activity [3] of the same molecule?
Answer: Active

Question: What about the Activity [4] of the same molecule?
Answer: 53 µM

Question: What about the Activity [5] of the same molecule?
Answer: Active

Question: And the Activity [6]?
Answer: 11.9 µM

Question: What about the Activity [7] of the same molecule?
Answer: Active

Question: And the Activity [8]?
Answer: Active

Question: What about the Activity (Small intestine) of the same molecule?
Answer: 30%

Question: Which Activity [1] does the source give for `CC(=O)N1CCC[C@H]1C(=O)N[C@@H](CC(C)C)C(=O)N[C@@H](CCC(N)=O)C(=O)O` (Ac-Pro-Leu-Gln-OH) here?
Answer: Active

B1: Solute carrier family 15 member 1 (Homo sapiens), P46059 (protein)
chain: T2 sequence (whole entry)
Question: How did the Km [10] turn out when B1 was run?
Answer: 4.2 mM
